Assay results taken from the NIST ThermoML archive (doi:10.1021/acs.jced.8b01189).
Numbers after ± are expanded uncertainties. One block for each compound: values may come before it.

What was measured:
[1] = 298.15 K; 100 kPa; Liquid; Vibrating tube method
[2] = xn = mol fraction of the nth substance listed; settings: 298.15 K, 100 kPa, Liquid, Vibrating tube method

Structure (SMILES): CCCCCCCCCCO [decan-1-ol]
mass density [1]: 826.1 ± 1 kg/m3

Structure (SMILES): CCCCCCCCCCO [decan-1-ol] + CCCCC(=O)O
mass density ([2]; x2 = 0): 826.1 ± 1 kg/m3

Structure (SMILES): CCCCCCCO [heptan-1-ol]
mass density [1]: 818.7 ± 1 kg/m3

Structure (SMILES): CCCCCCCO [heptan-1-ol] + CCCCC(=O)O
mass density ([2]; x2 = 0): 818.7 ± 1 kg/m3

Structure (SMILES): CCCCCCO [hexan-1-ol]
mass density [1]: 815.1 ± 1 kg/m3

Structure (SMILES): CCCCCCO [hexan-1-ol] + CCCCC(=O)O
mass density ([2]; x2 = 0): 815.1 ± 1 kg/m3

Structure (SMILES): CCCCCCCCCO [nonan-1-ol]
mass density [1]: 824 ± 1 kg/m3

Structure (SMILES): CCCCCCCCCO [nonan-1-ol] + CCCCC(=O)O
mass density ([2]; x2 = 0): 824 ± 1 kg/m3

More lines, now with the values ahead:

mass density [1]: 821.4 ± 1 kg/m3
Structure (SMILES): CCCCCCCCO [octan-1-ol]

mass density ([2]; x2 = 0): 821.4 ± 1 kg/m3
Structure (SMILES): CCCCCCCCO [octan-1-ol] + CCCCC(=O)O

mass density [1]: 810.8 ± 1 kg/m3
Structure (SMILES): CCCCCO [pentan-1-ol]

mass density ([2]; x2 = 0): 810.8 ± 1 kg/m3
Structure (SMILES): CCCCCO [pentan-1-ol] + CCCCC(=O)O

mass density [1]: 935.1 ± 1 kg/m3
Structure (SMILES): CCCCC(=O)O [pentanoic acid]

mass density ([2]; x1 = 0.0809): 831.4 ± 1 kg/m3
mass density ([2]; x1 = 0.1598): 837 ± 1 kg/m3
mass density ([2]; x1 = 0.2406): 843 ± 1 kg/m3
mass density ([2]; x1 = 0.3493): 852 ± 1 kg/m3
mass density ([2]; x1 = 0.4405): 860.2 ± 1 kg/m3
mass density ([2]; x1 = 0.5601): 872.3 ± 1 kg/m3
mass density ([2]; x1 = 0.6502): 882.5 ± 1 kg/m3
mass density ([2]; x1 = 0.7406): 893.9 ± 1 kg/m3
mass density ([2]; x1 = 0.8504): 909.6 ± 1.1 kg/m3
mass density ([2]; x1 = 0.9411): 924.2 ± 1.1 kg/m3
mass density ([2]; x1 = 1): 935.1 ± 1 kg/m3
Structure (SMILES): CCCCC(=O)O [pentanoic acid] + CCCCCCCCCCO

mass density ([2]; x1 = 0.0802): 830 ± 1 kg/m3
mass density ([2]; x1 = 0.1604): 836.1 ± 1 kg/m3
mass density ([2]; x1 = 0.2394): 842.8 ± 1 kg/m3
mass density ([2]; x1 = 0.3496): 852.5 ± 1 kg/m3
mass density ([2]; x1 = 0.4397): 861.2 ± 1 kg/m3
mass density ([2]; x1 = 0.5605): 873.9 ± 1 kg/m3
mass density ([2]; x1 = 0.6497): 884.3 ± 1 kg/m3
mass density ([2]; x1 = 0.7401): 895.6 ± 1 kg/m3
mass density ([2]; x1 = 0.8502): 911 ± 1 kg/m3
mass density ([2]; x1 = 0.9403): 925 ± 1.1 kg/m3
mass density ([2]; x1 = 1): 935.1 ± 1 kg/m3
Structure (SMILES): CCCCC(=O)O [pentanoic acid] + CCCCCCCCCO

mass density ([2]; x1 = 0.0809): 828.2 ± 1 kg/m3
mass density ([2]; x1 = 0.1604): 835.1 ± 1 kg/m3
mass density ([2]; x1 = 0.2392): 842.4 ± 1 kg/m3
mass density ([2]; x1 = 0.3496): 853 ± 1 kg/m3
mass density ([2]; x1 = 0.4399): 862.3 ± 1 kg/m3
mass density ([2]; x1 = 0.5605): 875.5 ± 1 kg/m3
mass density ([2]; x1 = 0.6497): 886.1 ± 1 kg/m3
mass density ([2]; x1 = 0.7401): 897.4 ± 1 kg/m3
mass density ([2]; x1 = 0.8504): 912.4 ± 1 kg/m3
mass density ([2]; x1 = 0.9403): 925.7 ± 1.1 kg/m3
mass density ([2]; x1 = 1): 935.1 ± 1 kg/m3
Structure (SMILES): CCCCC(=O)O [pentanoic acid] + CCCCCCCCO

mass density ([2]; x1 = 0.0812): 826.5 ± 1 kg/m3
mass density ([2]; x1 = 0.1601): 834.3 ± 1 kg/m3
mass density ([2]; x1 = 0.24): 842.5 ± 1 kg/m3
mass density ([2]; x1 = 0.3506): 854.2 ± 1 kg/m3
mass density ([2]; x1 = 0.4398): 864 ± 1 kg/m3
mass density ([2]; x1 = 0.5605): 877.8 ± 1 kg/m3
mass density ([2]; x1 = 0.6496): 888.5 ± 1 kg/m3
mass density ([2]; x1 = 0.7405): 899.7 ± 1 kg/m3
mass density ([2]; x1 = 0.8501): 914.1 ± 1 kg/m3
mass density ([2]; x1 = 0.9405): 926.5 ± 1 kg/m3
mass density ([2]; x1 = 1): 935.1 ± 1 kg/m3
Structure (SMILES): CCCCC(=O)O [pentanoic acid] + CCCCCCCO

mass density ([2]; x1 = 0.0924): 825.4 ± 1 kg/m3
mass density ([2]; x1 = 0.1783): 835.2 ± 1 kg/m3
mass density ([2]; x1 = 0.264): 845.1 ± 1 kg/m3
mass density ([2]; x1 = 0.3796): 858.6 ± 1 kg/m3
mass density ([2]; x1 = 0.4718): 869.5 ± 1 kg/m3
mass density ([2]; x1 = 0.5914): 883.9 ± 1 kg/m3
mass density ([2]; x1 = 0.6785): 894.5 ± 1 kg/m3
mass density ([2]; x1 = 0.7639): 905 ± 1 kg/m3
mass density ([2]; x1 = 0.8656): 917.8 ± 1 kg/m3
mass density ([2]; x1 = 0.9468): 928.2 ± 1 kg/m3
mass density ([2]; x1 = 1): 935.1 ± 1 kg/m3
Structure (SMILES): CCCCC(=O)O [pentanoic acid] + CCCCCCO

mass density ([2]; x1 = 0.0807): 821.4 ± 1 kg/m3
mass density ([2]; x1 = 0.1596): 831.9 ± 1 kg/m3
mass density ([2]; x1 = 0.2398): 842.4 ± 1 kg/m3
mass density ([2]; x1 = 0.3501): 856.7 ± 1 kg/m3
mass density ([2]; x1 = 0.4401): 868.2 ± 1 kg/m3
mass density ([2]; x1 = 0.5604): 883.1 ± 1 kg/m3
mass density ([2]; x1 = 0.6498): 894 ± 1 kg/m3
mass density ([2]; x1 = 0.7399): 904.7 ± 1 kg/m3
mass density ([2]; x1 = 0.8498): 917.6 ± 1 kg/m3
mass density ([2]; x1 = 0.9396): 928.1 ± 1 kg/m3
mass density ([2]; x1 = 1): 935.1 ± 1 kg/m3
Structure (SMILES): CCCCC(=O)O [pentanoic acid] + CCCCCO
